From US8293774B2, “Optically active (R)-aryloxypropionic acid amides and herbicidal composition comprising same” (Kyung Nong Corporation, priority 2007, dated 2012)

Key:
Rice = assay: Weed control test, 4-leaf stage plants (Test Example 1, Table 8); conditions: in vivo
Protocol: (§1) Seeds of rice, wheat, soy bean, barley, corn, common sorgum, barnyard grass, large crabgrass, creek grass, green foxtail and fall panicum were placed in sandy loam in 600 cm^2 pots and covered with soil. After keeping the pots in a greenhouse at 20 to 30° C. allowing growth of the plants to the 3-leaf stage of the barnyard grass, 2,000 l/ha of an emulsion obtained by diluting with water a mixture of 1 part by weight of a test compound, 5 parts by weight of acetone and 1 part by weight of an emulsifying agent (Tween 80, Junsei) was applied to the surface of the foliage of the plants. The plant damage at 10 days and 20 days after the foliage treatment was visually evaluated from the level of 1 to 100% by comparison with the untreated control: […]

Barnyard grass = assay: as above; format: in vivo, Echinoch crus-galli Beauv. var. caudata Kitagawa
Description: as §1, with “[…],” for “After keeping the pots in a greenhouse at 20 to 30° C. allowing growth of the plants to the 3-leaf stage of the barnyard grass,”

[1] = test system: TRZAW (Tritium aestivum L., wheat); assay: Weed control test, foliage treatment (Test Example 1, Table 7); conditions: in vivo
Protocol: as §1

[2] = test system: GLXMA (Glycine max(L.) MERR, soy bean); assay: as above; conditions: in vivo
Protocol: as §1

[3] = test system: ORYSA (Oryza sativa cv. Dongjin, rice); assay: as above; conditions: in vivo
Protocol: as §1

[4] = test system: ECHOG (Echinoch crus-galli Beauv. var. caudata Kitagawa, barnyard grass); assay: as above; format: in vivo; conditions: Echinochloa crus-galli, foliar, 3-leaf stage, read-out: Plant damage (herbicidal activity), visually evaluated, ECHOG; for pest or weed control at 25 g/ha: 0.025 kg/ha; for pest or weed control at 100 g/ha: 0.1 kg/ha; for pest or weed control at 200 g/ha: 0.2 kg/ha
Protocol: as §1

[5] = test system: ARTHIS (Arthraxon hispidus (Thunb.) Makino, creek grass); assay: as above; format: in vivo; conditions: Arthraxon hispidus, foliar, read-out: Plant damage (herbicidal activity), visually evaluated, ARTHIS; for pest or weed control at 25 g/ha: 0.025 kg/ha; for pest or weed control at 100 g/ha: 0.1 kg/ha; for pest or weed control at 200 g/ha: 0.2 kg/ha
Protocol: as §1

[6] = test system: PANDI (Panium dichotomiflorum Michx, fall panicum); assay: as above; format: in vivo; conditions: Panicum dichotomiflorum, foliar, read-out: Plant damage (herbicidal activity), visually evaluated, PANDI; for pest or weed control at 25 g/ha: 0.025 kg/ha; for pest or weed control at 100 g/ha: 0.1 kg/ha; for pest or weed control at 200 g/ha: 0.2 kg/ha
Protocol: as §1

[7] = test system: DIGSA (Digitaria Sanguinalis (L.) SCOP, large crabgrass); assay: as above; format: in vivo; conditions: Digitaria sanguinalis, foliar, read-out: Plant damage (herbicidal activity), visually evaluated, DIGSA; for pest or weed control at 25 g/ha: 0.025 kg/ha; for pest or weed control at 100 g/ha: 0.1 kg/ha; for pest or weed control at 200 g/ha: 0.2 kg/ha
Protocol: as §1

[8] = test system: SETVIR (Setaria viridis (L.) Beauv, green foxtail); assay: as above; format: in vivo; conditions: Setaria viridis, foliar, read-out: Plant damage (herbicidal activity), visually evaluated, SETVIR; for pest or weed control at 25 g/ha: 0.025 kg/ha; for pest or weed control at 100 g/ha: 0.1 kg/ha; for pest or weed control at 200 g/ha: 0.2 kg/ha
Protocol: as §1

[9] = test system: ZEAMX (Zea mays L., corn); assay: as above; format: in vivo; conditions: Zea mays, foliar, read-out: Plant damage (herbicidal activity), visually evaluated, ZEAMX; for plant injury at 25 g/ha: 0.025 kg/ha; for plant injury at 100 g/ha: 0.1 kg/ha; for plant injury at 200 g/ha: 0.2 kg/ha
Protocol: as §1

[10] = test system: SORBI (Andropogon sorghum, common sorgum); assay: as above; format: in vivo; conditions: Sorghum bicolor, foliar, read-out: Plant damage (herbicidal activity), visually evaluated, SORBI; for pest or weed control at 25 g/ha: 0.025 kg/ha; for pest or weed control at 100 g/ha: 0.1 kg/ha; for pest or weed control at 200 g/ha: 0.2 kg/ha
Protocol: as §1

[11] = test system: HORVU (Hordeum vulgare L., barley); assay: as above; conditions: in vivo
Protocol: as §1

Row | SMILES | Plant damage (herbicidal activity), visually evaluated, TRZAW [1] | Plant damage (herbicidal activity), visually evaluated, GLXMA [2] | Plant damage (herbicidal activity), visually evaluated, ORYSA [3] | pest or weed control at 25 g/ha [4] | pest or weed control at 100 g/ha [4] | pest or weed control at 200 g/ha [4] | pest or weed control at 25 g/ha [5] | pest or weed control at 100 g/ha [5] | pest or weed control at 200 g/ha [5] | pest or weed control at 25 g/ha [6] | pest or weed control at 100 g/ha [6] | pest or weed control at 200 g/ha [6] | pest or weed control at 25 g/ha [7] | pest or weed control at 100 g/ha [7] | pest or weed control at 200 g/ha [7] | pest or weed control at 25 g/ha [8] | pest or weed control at 100 g/ha [8] | pest or weed control at 200 g/ha [8] | plant injury at 25 g/ha [9] | plant injury at 100 g/ha [9] | further results
1 | C[C@@H](Oc1ccc(Oc2nc3ccc(Cl)cc3o2)cc1)C(=O)N(C)c1nc2ccccc2s1 [Example 6, (R)-2-[4-(6-chloro-2-benzoxazolyloxy)phenoxy]propionic acid-N-(2-benzothiazolyl)-N-methyl amide] | 0% | 0% | 0% | 0% | 20% | 70% | 0% | 20% | 50% | 0% | 20% | 70% | 0% | 20% | 70% | 0% | 20% | 50% | 0% | 10% | Plant damage (herbicidal activity), visually evaluated, Rice (Rice): 0%; Plant damage (herbicidal activity), visually evaluated, Barnyard grass (Barnyard grass; 0.025 kg/ha): 0%; Plant damage (herbicidal activity), visually evaluated, Barnyard grass (Barnyard grass; 0.05 kg/ha): 0%; Plant damage (herbicidal activity), visually evaluated, Barnyard grass (Barnyard grass; 0.1 kg/ha): 10%; Plant damage (herbicidal activity), visually evaluated, Barnyard grass (Barnyard grass; 0.4 kg/ha): 30%; plant injury at 200 g/ha [9]: 90%; pest or weed control at 25 g/ha [10]: 10%; pest or weed control at 100 g/ha [10]: 50%; pest or weed control at 200 g/ha [10]: 90%
2 | Cc1ccc(C=C(F)Oc2ccc(O[C@H](C)C(=O)Nc3ccccc3F)cc2)cc1 [Example 41, (R)-2-[4-(1-fluoro-2-(4-methylphenyl)vinyloxy)phenoxy]propionic acid-N-(2-fluorophenyl)amide] | 0% | 0% | 0% | 0% | 0% | 20% | 0% | 0% | 20% | 20% | 70% | 70% | 0% | 0% | 50% | 0% | 20% | 70% | 0% | 0% | Plant damage (herbicidal activity), visually evaluated, HORVU [11]: 0%; plant injury at 200 g/ha [9]: 20%; pest or weed control at 25 g/ha [10]: 0%; pest or weed control at 100 g/ha [10]: 0%; pest or weed control at 200 g/ha [10]: 0%
3 | C[C@@H](Oc1ccc(C(F)=C(c2ccccc2)C(F)(F)F)cc1)C(=O)Nc1ccccc1F [Example 42, (R)-2-[4-(1,3,3,3-tetrafluoro-2-phenylprop-1-enyl)phenoxy]propionic acid-N-(2-fluorophenyl)amide] | 0% | 0% | 0% | 0% | 20% | 20% | 0% | 0% | 50% | 0% | 0% | 70% | 0% | 0% | 20% | 0% | 0% | 70% | 0% | 30% | Plant damage (herbicidal activity), visually evaluated, HORVU [11]: 0%; plant injury at 200 g/ha [9]: 90%; pest or weed control at 25 g/ha [10]: 0%; pest or weed control at 100 g/ha [10]: 0%; pest or weed control at 200 g/ha [10]: 0%
4 | C[C@@H](Oc1ccc(C(F)=C(c2ccccc2)C(F)(F)F)cc1)C(=O)Nc1nc2cc(Cl)ccc2o1 [Example 55, (R)-2-[4-(1,3,3,3-tetrafluoro-2-phenylprop-1-enyl)phenoxy]propionic acid-N-(5-chloro-2-benzoxazolyl)amide] | 0% | 0% | 0% | 0% | 0% | 0% | 0% | 0% | 0% | 0% | 0% | 0% | 0% | 0% | 0% | 0% | 0% | 0% | 10% | 10% | Plant damage (herbicidal activity), visually evaluated, HORVU [11]: 0%; plant injury at 200 g/ha [9]: 30%; pest or weed control at 25 g/ha [10]: 10%; pest or weed control at 100 g/ha [10]: 20%; pest or weed control at 200 g/ha [10]: 35%
5 | C[C@@H](Oc1ccc(OC(F)=Cc2ccc(Cl)cc2)cc1)C(=O)Nc1nc2cc(Cl)ccc2o1 [Example 56, (R)-2-[4-(1-fluoro-2-(4-chlorophenyl)vinyloxy)phenoxy]propionic acid-N-(5-chloro-2-benzoxazolyl)amide] | 0% | 0% | 0% | 20% | 70% | 90% | 0% | 0% | 10% | 0% | 0% | 10% | 0% | 20% | 90% | 0% | 0% | 20% | 10% | 90% | Plant damage (herbicidal activity), visually evaluated, HORVU [11]: 0%; plant injury at 200 g/ha [9]: 90%; pest or weed control at 25 g/ha [10]: 0%; pest or weed control at 100 g/ha [10]: 20%; pest or weed control at 200 g/ha [10]: 20%
